The source made the active and inactive calls. The calls are words filed in the database; no cut-off is given here.

Data set [1] concerns SW-620. Put plainly: Antiproliferative activity against human SW620 cells after 72 hrs by MTT assay. It is filed as functional, cell-based. The settings on record: SW-620, 72 h.
The subject of data set [2] is HepG2. Put plainly: Antiproliferative activity against human HepG2 cells after 72 hrs by MTT assay. It is filed as functional, cell-based. The settings on record: HepG2, 72 h.
Data set [3] has as its system CFPAC-1. Put plainly: Antiproliferative activity against human CFPAC-1 cells after 72 hrs by MTT assay. It is filed as functional, cell-based. The following applies: CFPAC-1, 72 h.
Data set [4] has as its system HeLa. Put plainly: Antiproliferative activity against human HeLa cells after 72 hrs by MTT assay. It counts as functional, cell-based.
In data set [5] the test system is WI-38. Put plainly: Cytotoxicity against human WI38 cells after 72 hrs by MTT assay. It counts as cell-based. The settings on record: WI-38, 72 h.
Data set [6] in a line: Drug uptake in nucleus of human 786-O cells at 10 uM after 4 hrs by propidium iodide staining-based fluorescence microscopic analysis. It counts as ADME, subcellular. The following applies: 786-0, 4 h.
Data set [7] concerns Calf thymus DNA. Put plainly: Binding affinity to calf thymus duplex DNA assessed as change in melting temperature at drug to DNA ratio of 0.5 measured for every mins by spectrophotometric analysis. It is filed as nucleic-acid assay. The settings on record: Bos taurus.
Data set [8] concerns Calf thymus DNA. Put plainly: Binding affinity to calf thymus duplex DNA assessed as change in melting temperature at drug to DNA ratio of 1 measured for every mins by spectrophotometric analysis. It counts as nucleic-acid assay. The following applies: Bos taurus.
The test system of data set [9] is Calf thymus DNA. Put plainly: Binding affinity to calf thymus duplex DNA assessed as hypochromic effect up to drug to DNA ratio of 1 by UV-visible spectroscopic method. It is filed as nucleic-acid assay. The settings on record: Bos taurus.
The subject of data set [10] is Calf thymus DNA. Put plainly: Binding affinity to calf thymus duplex DNA assessed as bathochromic shift at drug to DNA ratio of 1 to 8 by UV-visible spectroscopic method. It is filed as nucleic-acid assay. The settings on record: Bos taurus.
For data set [11], the target named is T1, DNA topoisomerase 1 (Homo sapiens) (UniProt P11387).
T1 sequence (whole entry): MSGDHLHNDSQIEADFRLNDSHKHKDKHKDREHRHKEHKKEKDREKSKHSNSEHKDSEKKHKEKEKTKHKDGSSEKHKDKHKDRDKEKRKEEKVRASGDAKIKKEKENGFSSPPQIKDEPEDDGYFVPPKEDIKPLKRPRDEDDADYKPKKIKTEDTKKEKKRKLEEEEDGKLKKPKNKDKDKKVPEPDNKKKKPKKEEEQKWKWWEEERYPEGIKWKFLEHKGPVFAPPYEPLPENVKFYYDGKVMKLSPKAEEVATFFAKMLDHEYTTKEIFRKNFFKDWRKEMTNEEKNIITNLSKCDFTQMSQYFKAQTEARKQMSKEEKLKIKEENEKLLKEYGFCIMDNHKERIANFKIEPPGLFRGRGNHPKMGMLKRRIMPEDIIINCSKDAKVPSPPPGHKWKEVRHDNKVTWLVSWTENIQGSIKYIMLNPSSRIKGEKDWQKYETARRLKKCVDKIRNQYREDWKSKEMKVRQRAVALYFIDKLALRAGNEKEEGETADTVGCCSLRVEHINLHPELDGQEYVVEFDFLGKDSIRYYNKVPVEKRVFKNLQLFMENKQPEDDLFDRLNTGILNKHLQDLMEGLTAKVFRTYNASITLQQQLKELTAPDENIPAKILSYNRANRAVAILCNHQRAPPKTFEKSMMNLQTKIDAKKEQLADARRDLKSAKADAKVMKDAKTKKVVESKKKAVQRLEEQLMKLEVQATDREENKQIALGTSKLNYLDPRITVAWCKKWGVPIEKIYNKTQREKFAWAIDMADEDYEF
Put plainly: Inhibition of human topoisomerase-1 assessed as increase in accumulation of supercoiled pUC19 DNA at 1 to 50 uM by ethidium bromide staining based agarose gel electrophoresis.

Data set [12] concerns Calf thymus DNA. Put plainly: Binding affinity to calf thymus duplex DNA assessed as hyperchromic effect at drug to DNA ratio of 1 to 8 by UV-visible spectroscopic method. It is filed as nucleic-acid assay. The following applies: Bos taurus.
Data set [13] deals with T1, DNA topoisomerase 1 (Homo sapiens). Put plainly: Inhibition of human topoisomerase-1 assessed as increase in accumulation of supercoiled pUC19 DNA at 1 to 50 uM in absence of ethidium bromide staining by agarose gel electrophoresis.
Data set [14] has the same target. Put plainly: Poison activity at human topoisomerase-1 assessed as increase in relaxation of supercoiled pUC19 DNA at 1 to 50 uM by ethidium bromide staining based agarose gel electrophoresis.
Data set [15] has as its system Calf thymus DNA. Put plainly: Binding affinity to calf thymus duplex DNA by CD spectrum analysis. It is filed as nucleic-acid assay. The following applies: Bos taurus.
The subject of data set [16] is Calf thymus DNA. Put plainly: Binding affinity to calf thymus duplex DNA assessed as hypochromic effect up to drug to DNA ratio of 8 by UV-visible spectroscopic method. It counts as nucleic-acid assay. The settings on record: Bos taurus.
The subject of data set [17] is Calf thymus DNA. Put plainly: Binding affinity to calf thymus duplex DNA assessed as bathochromic shift up to drug to DNA ratio of 8 by UV-visible spectroscopic method. It counts as nucleic-acid assay. The settings on record: Bos taurus.
Data set [18] concerns Calf thymus DNA. Put plainly: Binding affinity to calf thymus duplex DNA assessed as hyperchromic effect up to drug to DNA ratio of 8 by UV-visible spectroscopic method. It counts as nucleic-acid assay. The settings on record: Bos taurus.
The target in data set [19] is T1, DNA topoisomerase 1 (Homo sapiens). Put plainly: Poison activity at human topoisomerase-1 assessed as increase in relaxation of supercoiled pUC19 DNA at 50 uM by ethidium bromide staining based agarose gel electrophoresis.
Data set [20] concerns Calf thymus DNA. Put plainly: Binding affinity to calf thymus duplex DNA assessed as change in melting temperature at drug to DNA ratio of 0.25 measured for every mins by spectrophotometric analysis. It is filed as nucleic-acid assay. The following applies: Bos taurus.
The nature of data set [21]: Binding affinity to AT-rich site of 3'-end radiolabelled 265 bp pBS DNA at 0.01 to 10 uM after 15 mins by DNase I footprinting assay.

On to `Cl.O=C(Nc1nc2ccccc2[nH]1)c1sc2cc(C3=NCCN3)ccc2c1Cl`, for which the IC50 in data set [1] is 5.49 µM; in data set [2], 2.47 µM; in data set [3], 4.84 µM; in data set [4], 2.31 µM; in [5], 2.97 µM. For the same compound, the Drug uptake result in [6] was “Active”. The ΔTm in data set [7] was 3.7 °C; in [8] it was 6.3 °C. Besides, the outcome in [9], in [10] and in data set [12] was Active. The inhibition entry in data set [11] and in data set [13] was “Active” throughout. Also, in data set [14], the result was inactive.

As to `O=C(Nc1nc2ccc(C3=NCCN3)cc2s1)c1sc2ccccc2c1Cl`, the IC50 in data set [1] came to 4.44 µM; in [2], 4.51 µM; in data set [3], 4.18 µM; in data set [4], 4.09 µM; in data set [5] it was 5.06 µM. For the same compound, the shift in melting temperature (ΔTm) in data set [7] is -0.2 °C; in data set [8], -1.7 °C.

Take `O=C(Nc1nc2ccc([N+](=O)[O-])cc2[nH]1)c1sc2cc(C3=NCCN3)ccc2c1Cl`: the IC50 was 6.18 µM in [1]; 2.23 µM in data set [2]; 6.93 µM in data set [3]; 2.61 µM in data set [4]; 4.06 µM in data set [5]. In addition, the ΔTm in data set [7] and in data set [8] was 2.4 °C in each case. Also, in data set [9], the outcome was Active. The inhibition result in data set [11] and in data set [13] was “Active” each time. Besides, the outcome in data set [14] was inactive.

For `O=C(Nc1nc2ccccc2s1)c1sc2cc(C3=NCCN3)ccc2c1Cl`, the IC50 in data set [1] is 7.05 µM; in data set [2] it was 14.2 µM; in data set [3] it was 5.04 µM; in data set [4], 1.16 µM; in [5] it was 4.24 µM. For the same compound, the inhibition result in data set [11] was “inactive”. In addition, in data set [15], the Activity entry is “Dose-dependent effect”. In data set [16], the result was Active. Further, the result in data set [17], in data set [14] and in data set [18] was inactive.

Turning to `Cl.O=C(Nc1nc2ccc(C3=NCCN3)cc2[nH]1)c1sc2ccccc2c1Cl`, the IC50 came out at 10.3 µM in [1]; 5.41 µM in data set [2]; 20.7 µM in data set [3]; 3.89 µM in [4]; 9.94 µM in data set [5]. The Drug uptake entry in [6] is on record as “Active”. Moreover, the values for the ΔTm in data set [7] and in [8] were 1.9 °C and 3.9 °C, respectively. The result in data set [9], in [10] and in data set [12] was Active. For the same compound, the Activity result in [15] is “Dose-dependent effect”. Also, in [19], the outcome was inactive.

In the case of `Cl.Cl.O=C(Nc1nc2ccc(C3=NCCN3)cc2[nH]1)c1sc2cc(C3=NCCN3)ccc2c1Cl`, the IC50 in [1] was more than 100 µM; in data set [2], more than 100 µM; in data set [3], more than 100 µM; in data set [4], more than 100 µM; in data set [5], 56.3 µM. Also, the Drug uptake result in data set [6] was “Active”. Moreover, the ΔTm in data set [20] amounted to 14.6 °C; in data set [7], 16.6 °C. Also, the outcome in [9], in data set [10], in data set [21] and in data set [12] was Active. The inhibition result in data set [11] and in data set [13] was “Active” each time. Moreover, the outcome in data set [14] was inactive.

Consider `O=C(Nc1nc2ccc(C3=NCCN3)cc2s1)c1sc2cc([N+](=O)[O-])ccc2c1Cl`, for which the IC50 in data set [1] was 69.1 µM; in data set [2], 6.43 µM; in [3], 6.81 µM; in data set [4], 5.58 µM; in data set [5], more than 100 µM. The values for the ΔTm in data set [7] and in data set [8] were -0.8 °C and 0.8 °C, respectively.

Consider `O=C(Nc1nc2ccc(C3=NCCN3)cc2s1)c1sc2cc(C3=NCCN3)ccc2c1Cl`, for which the IC50 came to 82 µM in data set [1]; 95.2 µM in data set [2]; 61.3 µM in data set [3]; 49.1 µM in data set [4]; 86.5 µM in [5]. Besides, the results for the ΔTm in data set [7] and in data set [8] were 1 °C and 1.5 °C, respectively.

The values are drawn from ChEMBL document CHEMBL4138108, “Novel amidino substituted benzimidazole and benzothiazole benzo[b]thieno-2-carboxamides exert strong antiproliferative and DNA binding properties” (Eur J Med Chem, 2017).
